Columns and labels:
Type in all cases: cell-based
[1] = tested on: panel of breast cancer and lung cancer cell lines; test: Free drug cell killing activity across the whole panel; conditions: all the cell lines tested (Table 2), 120 hours; read-out: EC50 values ranging over all the cell lines tested
Method: (§1) The in vitro cell killing activity of exatecan, gly-exatecan, and hemiasterlin were evaluated in a panel of breast cancer and lung cancer cell lines.
MDA-MB-361, SKBR3, BT20, HCC38, HCC1143, HCC1937, JIMT1, MCF-7, A549, NCI-H441, NCI-H520, NCI-H1703, NCI-H1975, NCI-H2110, NCI-H226, NCI-H292, NCI-H358 cells were purchased from ATCC (American Type Culture Collection, Manassas, VA, USA). All the cell lines were maintained in DMEM/F12 (1:1), high glucose (Corning, Corning, NY) supplemented with 10% heat-inactivated fetal bovine serum (Thermo Scientific, Grand Island, NY), 2 mM glutamax (Thermo Scientific, Grand Island, NY), and 1× Penicillin/Streptomycin (Corning, Corning, NY). Cytotoxicity effect of the Exatecan warhead was measured with a cell proliferation assay. Cells were seeded in a 384-well flat bottom white polystyrene plate at 625 cells/25 uL the day before the actual assay starts. Exatecan was formulated at 2× starting concentration in cell culture medium, serial diluted (1:3) under sterile conditions and added onto cells in triplicates. Plates were cultured at 37° C. in a CO2 incubator for 120 hours. […] Relative luminescence was measured on an ENVISION® plate reader (Perkin-Elmer; Waltham, MA). Relative luminescence readings were converted to % viability using untreated cells as controls. […]

[2] = tested on: MDA-MB-231; test: Free drug cell killing activity (cell proliferation assay, Cell Titer-Glo)
[3] = tested on: NCI-H2343; test: as above
[4] = tested on: JIMT1; test: as above
Method: as §1
(§2) MDA-MB-361, SKBR3, BT20, HCC38, HCC1143, HCC1937, JIMT1, MCF-7, A549, NCI-H441, NCI-H520, NCI-H1703, NCI-H1975, NCI-H2110, NCI-H226, NCI-H292, NCI-H358 cells were purchased from ATCC (American Type Culture Collection, Manassas, VA, USA). All the cell lines were maintained in DMEM/F12 (1:1), high glucose (Corning, Corning, NY) supplemented with 10% heat-inactivated fetal bovine serum (Thermo Scientific, Grand Island, NY), 2 mM glutamax (Thermo Scientific, Grand Island, NY), and 1× Penicillin/Streptomycin (Corning, Corning, NY). Cytotoxicity effect of the Exatecan warhead was measured with a cell proliferation assay. Cells were seeded in a 384-well flat bottom white polystyrene plate at 625 cells/25 uL the day before the actual assay starts. Exatecan was formulated at 2× starting concentration in cell culture medium, serial diluted (1:3) under sterile conditions and added onto cells in triplicates. Plates were cultured at 37° C. in a CO2 incubator for 120 hours. For cell viability measurement, 30 microliter of Cell Titer-Glo® reagent (Promega Corp, Madison, WI) was added into each well, and plates processed as per product instructions. Relative luminescence was measured on an ENVISION® plate reader (Perkin-Elmer; Waltham, MA). Relative luminescence readings were converted to % viability using untreated cells as controls. Data was fitted with non-linear regression analysis, using log (inhibitor) vs. response, variable slope, 4-parameter fit equation using GraphPad Prism.

[5] = tested on: NCI-H1703; test: as above
Method: as §1, §2

[6] = tested on: SKBR3; test: as above
Method: as §1, §2

[7] = tested on: NCI-H441; test: as above
Method: as §1, §2

[8] = tested on: MCF-7; test: as above
Method: as §1, §2

[9] = tested on: BT20; test: as above
Method: as §1, §2

[10] = tested on: NCI-H2110; test: as above
Method: as §1, §2

[11] = tested on: NCI-H226; test: as above
Method: as §1, §2

[12] = tested on: NCI-H520; test: as above; conditions: NCI-H520, 120 hours
Method: as §1, §2

[13] = tested on: HCC1937; test: as above
Method: as §1, §2

[14] = tested on: NCI-H1975; test: as above
Method: as §1, §2

[15] = tested on: NCI-H292; test: as above
Method: as §1, §2

[16] = tested on: A549; test: as above
Method: as §1, §2

[17] = tested on: NCI-H358; test: as above
Method: as §1, §2

[18] = tested on: HCC38; test: as above
Method: as §1, §2

[19] = tested on: HCC1143; test: as above
Method: as §1, §2

[20] = tested on: MDA-MB-361; test: as above
Method: as §1, §2

[21] = tested on: MDA-MB-468; test: as above

Which results are given for `CC[C@@]1(O)C(=O)OCc2c1cc1n(c2=O)Cc2c-1nc1cc(F)c(C)c3c1c2[C@@H](N)CC3` [Exatecan, exatecan]?
EC50 [1]: 0.32 to 4.2 nM; EC50 ([2]; Homo sapiens, MDA-MB-231, 120 h): 0.84 nM; Span (%) ([2]; MDA-MB-231, 120 hours): 64%; EC50 ([3]; 120 h): 12 nM; Span (%) ([3]; NCI-H2343, 120 hours): 70%; EC50 ([4]; Homo sapiens, JIMT-1, 120 h): 1.6 nM; Span (%) ([4]; JIMT1, 120 hours): 98%; EC50 ([5]; Homo sapiens, NCI-H1703, 120 h): 1.1 nM; Span (%) ([5]; NCI-H1703, 120 hours): 93%; EC50 ([6]; Homo sapiens, SK-BR-3, 120 h): 0.39 nM; Span (%) ([6]; SKBR3, 120 hours): 96%; EC50 ([7]; Homo sapiens, NCI-H441, 120 h): 0.32 nM; Span (%) ([7]; NCI-H441, 120 hours): 93%; EC50 ([8]; Homo sapiens, MCF7, 120 h): 1.2 nM; Span (%) ([8]; MCF-7, 120 hours): 83%; Span (%) ([9]; BT20, 120 hours): 96%; EC50 ([9]; Homo sapiens, BT-20, 120 h): 0.91 nM; EC50 ([10]; NCI-H2110, 120 h): 0.61 nM; Span (%) ([10]; NCI-H2110, 120 hours): 91%; EC50 ([11]; Homo sapiens, NCI-H226, 120 h): 1.08 nM; Span (%) ([11]; NCI-H226, 120 hours): 98%; EC50 ([12]; Homo sapiens): 0.6 nM; Span (%) [12]: 96%; Span (%) ([13]; HCC1937, 120 hours): 94%; EC50 ([13]; Homo sapiens, HCC1937, 120 h): 3.5 nM; EC50 ([14]; Homo sapiens, NCI-H1975, 120 h): 0.87 nM; Span (%) ([14]; NCI-H1975, 120 hours): 90%; EC50 ([15]; Homo sapiens, NCI-H292, 120 h): 0.36 nM; Span (%) ([15]; NCI-H292, 120 hours): 98%; Span (%) ([16]; A549, 120 hours): 96%; EC50 ([16]; Homo sapiens, A549, 120 h): 1.2 nM; EC50 ([17]; Homo sapiens, NCI-H358, 120 h): 0.53 nM; Span (%) ([17]; NCI-H358, 120 hours): 96%; Span (%) ([18]; HCC38, 120 hours): 96%; EC50 ([18]; Homo sapiens, HCC38, 120 h): 0.38 nM; Span (%) ([19]; HCC1143, 120 hours): 76%; EC50 ([19]; Homo sapiens, HCC1143, 120 h): 0.85 nM; EC50 ([20]; Homo sapiens, MDA-MB-361, 120 h): 1.2 nM; Span (%) ([20]; MDA-MB-361, 120 hours): 96%; EC50 ([21]; Homo sapiens, MDA-MB-468, 120 h): 0.59 nM; Span (%) ([21]; MDA-MB-468, 120 hours): 97%
